Laboratory results from ChEMBL document CHEMBL1134067, “Modeling of the binding mode of a non-covalent inhibitor of the 20S proteasome. Application to structure-based analogue design” (Bioorg Med Chem Lett, 2001).

Organism: Homo sapiens
Test: In vitro inhibitory concentration against Chymotrypsin-like catalytic activity of the human 20S Proteasome
Format: functional

**Q.** Which IC50 does the source give for `COc1ccc(CN[C@@H](C(=O)N[C@H](C(=O)NCc2ccc(OC)cc2OC)C(C)C)[C@H](O)[C@H](Cc2ccccc2)NC(=O)[C@@H](NC(=O)OCc2ccccc2)C(C)C)cc1` here?
**A.** Its IC50 is over 20 µM.
